Source: ChEMBL document CHEMBL3758126, “Synthesis of 4-sulfamoylphenyl-benzylamine derivatives with inhibitory activity against human carbonic anhydrase isoforms I, II, IX and XII” (Bioorg Med Chem, 2016)

Legend:
Carbonic anhydrase 12 = Carbonic anhydrase 12 (Homo sapiens, UniProt O43570)
Description: Inhibition of human recombinant carbonic anhydrase 12 preincubated for 15 mins by stopped-flow CO2 hydrase assay

Carbonic anhydrase 9 = Carbonic anhydrase 9 (Homo sapiens, UniProt Q16790)
Description: Inhibition of human recombinant carbonic anhydrase 9 preincubated for 15 mins by stopped-flow CO2 hydrase assay

Carbonic anhydrase 1 = Carbonic anhydrase 1 (Homo sapiens, UniProt P00915)
Sequence of Carbonic anhydrase 1 (P00915 whole entry): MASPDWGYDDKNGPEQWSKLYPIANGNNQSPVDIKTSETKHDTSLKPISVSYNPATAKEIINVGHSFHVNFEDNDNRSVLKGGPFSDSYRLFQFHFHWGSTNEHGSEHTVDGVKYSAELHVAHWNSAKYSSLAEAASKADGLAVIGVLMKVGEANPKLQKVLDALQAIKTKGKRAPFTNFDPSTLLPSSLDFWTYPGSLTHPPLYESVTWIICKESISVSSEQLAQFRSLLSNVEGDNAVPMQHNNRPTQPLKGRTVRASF
Description: Inhibition of human recombinant carbonic anhydrase 1 preincubated for 15 mins by stopped-flow CO2 hydrase assay

Sequence of Carbonic anhydrase 12 (O43570 whole entry): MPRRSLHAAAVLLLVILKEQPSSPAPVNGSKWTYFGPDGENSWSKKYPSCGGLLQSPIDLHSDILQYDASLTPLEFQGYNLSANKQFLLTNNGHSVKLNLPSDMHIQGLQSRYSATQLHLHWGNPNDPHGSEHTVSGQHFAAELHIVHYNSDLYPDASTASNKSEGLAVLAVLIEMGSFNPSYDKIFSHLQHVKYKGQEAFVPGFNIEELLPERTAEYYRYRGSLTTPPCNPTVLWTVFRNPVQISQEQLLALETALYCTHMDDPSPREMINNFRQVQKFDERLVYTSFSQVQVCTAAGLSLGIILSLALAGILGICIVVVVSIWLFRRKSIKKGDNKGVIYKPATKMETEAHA

SMILES	Ki (Carbonic anhydrase 12) [nM]	Ki (Carbonic anhydrase 9) [nM]	Ki (Carbonic anhydrase 1) [nM]
COc1ccc(CNc2ccc(S(N)(=O)=O)cc2)cc1	427	2.2	21.9
NS(=O)(=O)c1ccc(NCc2cc(Cl)cc(Cl)c2O)cc1		2.2	
NS(=O)(=O)c1ccc(NCc2ccccc2O)cc1		2.9	
NS(=O)(=O)c1ccc(/N=C/c2cc(Cl)cc(Cl)c2O)cc1		35.6	
NS(=O)(=O)c1ccc(/N=C/c2cc(Br)ccc2O)cc1		257	
NS(=O)(=O)c1ccc(NCc2ccc(OCc3ccccc3)cc2)cc1		2.5	
CN(C)c1ccc(CNc2ccc(S(N)(=O)=O)cc2)cc1	> 50000	2.4	
NS(=O)(=O)c1ccc(/N=C/c2ccccc2)cc1	11.1	454	> 50000

Other lines, results leading:

Ki (Carbonic anhydrase 12) [nM]	Ki (Carbonic anhydrase 9) [nM]	Ki (Carbonic anhydrase 1) [nM]	SMILES
	2.4		NS(=O)(=O)c1ccc(NCc2cc(Cl)ccc2O)cc1
8.8	41.5	421	CN(C)c1ccc(/C=N/c2ccc(S(N)(=O)=O)cc2)cc1
11.2	883	> 50000	COc1ccc(/C=N/c2ccc(S(N)(=O)=O)cc2)cc1
	2.1		Cc1ccc(CNc2ccc(S(N)(=O)=O)cc2)cc1
	465		Cc1cccc(/C=N/c2ccc(S(N)(=O)=O)cc2)c1O
	2.3		Cc1cccc(CNc2ccc(S(N)(=O)=O)cc2)c1O
	36	> 50000	NS(=O)(=O)c1ccc(/N=C/c2ccc(OCc3ccccc3)cc2)cc1
	360	> 50000	NS(=O)(=O)c1ccc(/N=C/c2cc(Br)cc(Br)c2O)cc1
	2.3		NS(=O)(=O)c1ccc(NCc2cc(Br)cc(Br)c2O)cc1
	47.9	> 50000	NS(=O)(=O)c1ccc(/N=C/c2cc(Cl)ccc2O)cc1
	952		NS(=O)(=O)c1ccc(/N=C/c2ccccc2O)cc1
9.9		> 50000	Cc1ccc(/C=N/c2ccc(S(N)(=O)=O)cc2)cc1
